Measured values from US12077503B2, “Substituted cyclic amides and their use as herbicides” (FMC CORPORATION, priority 2015, dated 2024).

Columns and labels:
Assay type in all cases: in vivo
[1] = tested on: Kochia (Kochia scoparia); test: Test A preemergence; settings: Bassia scoparia, pre-emergence, 240 h, read-out: Plant response rating, Kochia
Outline: (§1)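 Preemergence directed soil spray on seeded pots, or postemergence application to plants 2–10 cm, one- to two-leaf. Solvent mixture non-phytotoxic, with surfactant. Scored ~10 d later, visually, 0–100 vs untreated.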

[2] = tested on: giant foxtail (Setaria faberii); test: Test A preemergence; settings: Setaria faberi, pre-emergence, 240 h, read-out: Plant response rating, Foxtail, Giant
Outline: as §1

[3] = tested on: pigweed (Amaranthus retroflexus); test: Test A preemergence; settings: Amaranthus retroflexus, pre-emergence, 240 h, read-out: Plant response rating, Pigweed
[4] = tested on: ragweed (common ragweed, Ambrosia elatior); test: Test A preemergence; settings: Ambrosia artemisiifolia, pre-emergence, 240 h, read-out: Plant response rating, Ragweed
Outline: as §1

[5] = tested on: ryegrass, Italian (Italian ryegrass, Lolium multiflorum); test: Test A preemergence; settings: Lolium multiflorum, pre-emergence, 240 h, read-out: Plant response rating, Ryegrass, Italian
Outline: as §1

[6] = tested on: Galium (catchweed bedstraw, Galium aparine); test: Test A postemergence; settings: Galium, post-emergence, 240 h
Outline: as §1

[7] = tested on: Kochia (Kochia scoparia); test: Test A postemergence; settings: Bassia scoparia, post-emergence, 240 h
Outline: as §1

[8] = tested on: barnyardgrass (Echinochloa crus-galli); test: Test A postemergence; settings: Echinochloa crus-galli, post-emergence, 240 h
Outline: as §1

[9] = tested on: blackgrass (Alopecurus myosuroides); test: Test A postemergence; settings: Alopecurus myosuroides, post-emergence, 240 h
Outline: as §1

[10] = tested on: corn (Zea mays); test: Test A postemergence; settings: Zea mays, post-emergence, 240 h
Outline: as §1

[11] = tested on: giant foxtail (Setaria faberii); test: Test A postemergence; settings: Setaria faberi, post-emergence, 240 h
Outline: as §1

[12] = tested on: pigweed (Amaranthus retroflexus); test: Test A postemergence; settings: Amaranthus retroflexus, post-emergence, 240 h
Outline: as §1

[13] = tested on: ragweed (common ragweed, Ambrosia elatior); test: Test A postemergence; settings: Ambrosia artemisiifolia, post-emergence, 240 h
Outline: as §1

[14] = tested on: ryegrass, Italian (Italian ryegrass, Lolium multiflorum); test: Test A postemergence; settings: Lolium multiflorum, post-emergence, 240 h
Outline: as §1

[15] = tested on: wheat (Triticum aestivum); test: Test A postemergence; settings: Triticum aestivum, post-emergence, 240 h
Outline: as §1

[16] = 125 g ai/ha, preemergence, visual rating after approx. 10 d, 0 to 100 scale where 0 is no effect and 100 is complete control
[17] = Preemergence, 31 g ai/ha, 0 to 100 scale (0 no effect, 100 complete control)

CN1CC[C@H](c2cccc(OC(F)(F)F)c2)[C@@H](C(=O)Nc2cccc(F)c2F)C1=O [Compound 807]
50%: pest or weed control at 125 g/ha [1, 16]
20%: pest or weed control at 31 g/ha [5, 17]
40%: pest or weed control at 125 g/ha [3, 16]
0%: pest or weed control at 31 g/ha [1, 17] | pest or weed control at 31 g/ha [3, 17] | pest or weed control at 125 g/ha [4, 16] | pest or weed control at 31 g/ha [4, 17] | pest or weed control at 125 g/ha ([6]; 125 g ai/ha, postemergence, visual injury rating after approximately 10 d, read-out: Galium plant response rating (0 to 100 scale, 0 no effect, 100 complete control)) | pest or weed control at 31 g/ha ([6]; Postemergence, 31 g ai/ha, visual injury after approx. 10 d, 0 to 100 scale, 0 no effect, 100 complete control, read-out: Plant response rating, Galium) | pest or weed control at 125 g/ha ([7]; 125 g ai/ha, postemergence, visual injury rating after approximately 10 d, read-out: Kochia plant response rating (0 to 100 scale, 0 no effect, 100 complete control)) | pest or weed control at 31 g/ha ([7]; Postemergence, 31 g ai/ha, visual injury after approx. 10 d, 0 to 100 scale, 0 no effect, 100 complete control, read-out: Plant response rating, Kochia) | pest or weed control at 125 g/ha ([9]; 125 g ai/ha, postemergence, visual injury rating after approximately 10 d, read-out: Blackgrass plant response rating (0 to 100 scale, 0 no effect, 100 complete control)) | pest or weed control at 31 g/ha ([9]; Postemergence, 31 g ai/ha, visual injury after approx. 10 d, 0 to 100 scale, 0 no effect, 100 complete control, read-out: Plant response rating, Blackgrass) | Corn plant response rating (crop injury, 0 = no effect, 100 = complete kill) at 31 g/ha ([10]; Postemergence, 31 g ai/ha, visual injury after approx. 10 d, 0 to 100 scale, 0 no effect, 100 complete control) | pest or weed control at 125 g/ha ([12]; 125 g ai/ha, postemergence, visual injury rating after approximately 10 d, read-out: Pigweed plant response rating (0 to 100 scale, 0 no effect, 100 complete control)) | pest or weed control at 31 g/ha ([12]; Postemergence, 31 g ai/ha, visual injury after approx. 10 d, 0 to 100 scale, 0 no effect, 100 complete control, read-out: Plant response rating, Pigweed) | pest or weed control at 125 g/ha ([13]; 125 g ai/ha, postemergence, visual injury rating after approximately 10 d, read-out: Ragweed plant response rating (0 to 100 scale, 0 no effect, 100 complete control)) | pest or weed control at 31 g/ha ([13]; Postemergence, 31 g ai/ha, visual injury after approx. 10 d, 0 to 100 scale, 0 no effect, 100 complete control, read-out: Plant response rating, Ragweed) | pest or weed control at 125 g/ha ([14]; 125 g ai/ha, postemergence, visual injury rating after approximately 10 d, read-out: Ryegrass, Italian plant response rating (0 to 100 scale, 0 no effect, 100 complete control)) | pest or weed control at 31 g/ha ([14]; Postemergence, 31 g ai/ha, visual injury after approx. 10 d, 0 to 100 scale, 0 no effect, 100 complete control, read-out: Plant response rating, Ryegrass, Italian) | plant injury at 31 g/ha ([15]; Postemergence, 31 g ai/ha, visual injury after approx. 10 d, 0 to 100 scale, 0 no effect, 100 complete control, read-out: Plant response rating, Wheat)
100%: pest or weed control at 125 g/ha [2, 16] | pest or weed control at 31 g/ha [2, 17]
80%: pest or weed control at 125 g/ha ([8]; 125 g ai/ha, postemergence, visual injury rating after approximately 10 d, read-out: Barnyardgrass plant response rating (0 to 100 scale, 0 no effect, 100 complete control)) | pest or weed control at 125 g/ha ([11]; 125 g ai/ha, postemergence, visual injury rating after approximately 10 d, read-out: Foxtail, Giant plant response rating (0 to 100 scale, 0 no effect, 100 complete control))
30%: plant injury at 125 g/ha ([15]; 125 g ai/ha, postemergence, visual injury rating after approximately 10 d, read-out: Wheat plant response rating (0 to 100 scale, 0 no effect, 100 complete control))
70%: pest or weed control at 125 g/ha [5, 16] | pest or weed control at 31 g/ha ([8]; Postemergence, 31 g ai/ha, visual injury after approx. 10 d, 0 to 100 scale, 0 no effect, 100 complete control, read-out: Plant response rating, Barnyardgrass) | plant injury at 125 g/ha ([10]; 125 g ai/ha, postemergence, visual injury rating after approximately 10 d, read-out: Corn plant response rating (0 to 100 scale, 0 no effect, 100 complete control)) | pest or weed control at 31 g/ha ([11]; Postemergence, 31 g ai/ha, visual injury after approx. 10 d, 0 to 100 scale, 0 no effect, 100 complete control, read-out: Plant response rating, Foxtail, Giant)
